Experimental data as given in US20190269752A1, “Methods for the Prevention or Treatment of Epilepsy” (Duke University, priority 2018, published 2019).

Tests used:
[1] = target: T1, TrkB kinase (Mus musculus, UniProt P15209); conditions: WT mice (Chen et al. 2005, Liu et al. 2013); cited from earlier work
T1 construct: host or cells: wild type (C57/bl6) mice, endogenous TrkB

[2] = test system: kindled TrkB^F616A mice; assay: Kindling model, 1NMPP1 treatment in the absence of a preceding evoked seizure; assay type: in vivo; conditions: no preceding evoked seizure, seizure evoked six days after cessation
Description: (§1) Experiments were performed as previously described (He et al. 2010, He et al. 2014). A bipolar stimulating and recording electrode was inserted into the right amygdala (1.0 mm posterior, 2.9 mm lateral to bregma; 4.6 mm below dura). A skull screw was placed over the left frontal lobe as a ground electrode. After a postoperative recovery period of at least 5 days, animals were connected to a Grass Stimulator and monitored by both video and EEG. The current required to evoke an electrographic seizure (electrographic seizure threshold [EST]) was determined by applying a 1 s train of 1 msec biphasic-rectangular pulses at 60 Hz beginning at 20 μA. Additional stimulations were given in 20 μA increments at 1 min intervals until an electrographic seizure was detected. Animals then received two stimulations per day at the EST, with the behavioral seizure scores classified according to a modification of the Racine scale for mice (Borges et al., 2003; Racine, 1972): 0, normal activity; 1, arrest and rigid posture; 2, head nodding; 3, unilateral forelimb clonus; 4, rearing with bilateral forelimbs clonus; 5, rearing and falling; 6, tonic-clonic seizures with violent running and/or jumping. The criterion for “kindled” was the occurrence of three consecutive seizures of class 4 or greater, with limb clonus/tonus lasting at least 12 s.
(§2) Design of individual experiments is presented in panel A of FIGS. 1-5. All “post-kindling seizures” (see FIG. 1A) were evoked with a stimulation intensity determined by assessing the EST a second time, typically 6 days after evoking the “final kindled seizure” the EST was determined by administering stimulations in 20 μA increments every 1 min, beginning at 20 μA, until an electrographic seizure was evoked.
Prior to each administration, stock 100 mM 1NMPP1 was dissolved in a solubilization buffer containing 0.9% NaCL and 2.5% Tween-20 to a concentration of 1.67 mg/mL and dosed at 16.6 ug/g IP every 12 h for a total of five treatments. Vehicle injection served as a control. […]

[3] = test system: kindled TrkB^F616A mice; assay: Kindling model, 1NMPP1 treatment initiated after an evoked seizure (chemical-genetic inhibition of TrkB kinase); assay type: in vivo
Text: All animal procedures were approved by the Institutional Animal Care and Use Committee (IACUC) at Duke University and conform to the National Institutes of Health and Duke University institutional guidelines for the care and use of experimental animals. Animals were maintained on a 12-hour light/dark cycle with food and water available ad libitum. Wild type (WT) adult (8-12 wk) C57/bl6 male mice were obtained from Charles River. TrkB^F616A mice were originally obtained from Dr. David Ginty (Chen et al. 2005) and backcrossed to the C57/bl6 line for at least seven generations. This knockin mouse harbors a point mutation on the TrkB allele, substituting an alanine for phenylalanine within the ATP binding pocket of the TrkB kinase domain. This mutation renders TrkB protein uniquely susceptible to kinase inhibition by small molecule derivatives of the general kinase inhibitor PP1, including 1-(1,1-dimethylethyl)-3-(1-naphthalenylmethyl)-1H-pyrazolo[3,4-d]pyrimidin-4-amine (1NMPP1). […] Both male and female adult (8-12 wk) homozygous mice were used.
(§3) Video and EEG recordings were analyzed by a blinded, trained observer who quantified behavioral seizure class and duration of both electrographic and behavioral seizure.
(§4) Experiments were performed as previously described (He et al. 2010, He et al. 2014). A bipolar stimulating and recording electrode was inserted into the right amygdala (1.0 mm posterior, 2.9 mm lateral to bregma; 4.6 mm below dura). A skull screw was placed over the left frontal lobe as a ground electrode. After a postoperative recovery period of at least 5 days, animals were connected to a Grass Stimulator and monitored by both video and EEG. The current required to evoke an electrographic seizure (electrographic seizure threshold [EST]) was determined by applying a 1 s train of 1 msec biphasic-rectangular pulses at 60 Hz beginning at 20 μA. Additional stimulations were given in 20 μA increments at 1 min intervals until an electrographic seizure was detected. […]
Design of individual experiments is presented in panel A of FIGS. 1-5. All “post-kindling seizures” (see FIG. 1A) were evoked with a stimulation intensity determined by assessing the EST a second time, typically 6 days after evoking the “final kindled seizure” the EST was determined by administering stimulations in 20 μA increments every 1 min, beginning at 20 μA, until an electrographic seizure was evoked. […]

[4] = test system: kindled WT mice; assay: Kindling model, treatment initiated after an evoked seizure in wild type mice; assay type: in vivo; conditions: 1NMPP1 treatment of WT animals (n=9) following Post-Kindling Seizure #1, p<0.01
Text: All animal procedures were approved by the Institutional Animal Care and Use Committee (IACUC) at Duke University and conform to the National Institutes of Health and Duke University institutional guidelines for the care and use of experimental animals. Animals were maintained on a 12-hour light/dark cycle with food and water available ad libitum. Wild type (WT) adult (8-12 wk) C57/bl6 male mice were obtained from Charles River. TrkB^F616A mice were originally obtained from Dr. David Ginty (Chen et al. 2005) and backcrossed to the C57/bl6 line for at least seven generations. […]
as §3
as §4, with “A bipolar stimulating and recording electrode was inserted into the right amygdala (1.0 mm posterior, 2.9 mm lateral to bregma; 4.6 mm below dura). A skull screw was placed over the left frontal lobe as a ground electrode.” left out

[5] = test system: epileptic animals (KA-SE); assay: Spontaneous recurrent seizures (video-EEG) after kainic acid-induced status epilepticus (KA-SE model of TLE); assay type: in vivo, mice; conditions: six animals; for SRS during two weeks following cessation of treatment: after carbamazepine 800 mg/kg/day in food pellets for two weeks; for SRS during two weeks on treatment: carbamazepine 800 mg/kg/day in food pellets for two weeks
Text: Determining whether pY816 may be beneficial in epileptic animals required modification of our study of the kainic acid (KA)-status epilepticus (SE) model. To more closely mimic the clinical scenario in which patients seek medical attention for established TLE, we induced KA-SE and then conducted video-EEG recordings to detect spontaneous recurrent seizures during baseline periods of two to four weeks until they developed TLE prior to treating with pY816 peptide. In contrast to just three days of treatment with pY816 deployed in previous studies, we sought a more prolonged treatment with pY816 for the current experiments, namely two weeks. The intravenous route of administration used for three days in the prior studies was not feasible for two weeks, leading us to ask whether treatment via intraperitoneal route could inhibit activation of PLCγ1. We used the phosphorylation of residue Y783 of PLCγ1 detected on western blot of brain lysates as a surrogate measure of PLCγ1 activation.
Having verified that intraperitoneal administration of pY816 inhibited PLCγ1 activation, we then asked whether treatment with pY816 initiated after onset of epilepsy and continued for two weeks would reduce the severity of epilepsy or even induce a remission. Towards that end, we induced KA-SE but then followed the animals for several weeks until they developed TLE as assessed by detection of SRS in continuous video-EEG recordings. We quantified the number of SRS in each animal by blinded review of video-EEG recordings during three distinct two week epochs (FIG. 8): a) baseline; b) treatment with pY816 (n=9) or Scr control (n=6), 20 mg/kg IP twice daily for two weeks (on Tx); c) following termination of treatment (Post Tx). As noted in FIG. 8, following induction of status epilepticus induced by infusion of kainic acid into amygdala (Gu et al 2015) animals underwent continuous video-EEG recording to detect spontaneous recurrent seizures. Following baseline recording of two weeks, animals were treated with either pY816 or Scr control peptide (20 mg/kg) twice daily for two weeks (Day 15-28). Video-EEG recording continued for two weeks following termination of treatment (Post-treatment).
Results are shown in FIG. 9, where each symbol represents the number of seizures experienced by a given animal during Baseline, Treatment (Tx), or Post-treatment (Post Tx) periods. Horizontal bars designate median. Treatment (Tx) consisted of either pY816 or Scr control given 20 mg/kg twice daily for two weeks. Note that seizure detection was performed by analyses of video-EEG recordings by two blinded investigators.
Antiseizure drugs in current clinical use provide symptomatic relief of seizures in many but not all patients, but seizures typically recur upon cessation of the drug. To verify that similar findings occur in our animal model, we tested the effect of an antiseizure drug in current clinical use in our model (carbamazepine). We infused additional animals with KA and assessed the occurrence of SRS with continuous video-EEG monitoring for several weeks. […] Thus, like TLE in humans, continuous treatment with an antiseizure drug suppresses seizures, yet seizures recur upon discontinuation of treatment.

[6] = test system: kindled mice; assay: Kindling model, carbamazepine treatment after an evoked seizure; assay type: in vivo; conditions: carbamazepine 20 mg/kg IP at four hour intervals for two days following Post-Kindling Seizure #1
Description: as §1, §2
Carbamazepine (Sigma) was dissolved in a solubilization buffer of 2% Tween-80 and 70% propylene glycol at a concentration of 2 mg/mL and administered at a dose of 20 mg/kg, a dose of carbamazepine sufficient to produce therapeutic blood levels (Grabenstatter et al. 2007). Treatments were given every 4 h for two days. […]

T1 sequence (P15209 32-821): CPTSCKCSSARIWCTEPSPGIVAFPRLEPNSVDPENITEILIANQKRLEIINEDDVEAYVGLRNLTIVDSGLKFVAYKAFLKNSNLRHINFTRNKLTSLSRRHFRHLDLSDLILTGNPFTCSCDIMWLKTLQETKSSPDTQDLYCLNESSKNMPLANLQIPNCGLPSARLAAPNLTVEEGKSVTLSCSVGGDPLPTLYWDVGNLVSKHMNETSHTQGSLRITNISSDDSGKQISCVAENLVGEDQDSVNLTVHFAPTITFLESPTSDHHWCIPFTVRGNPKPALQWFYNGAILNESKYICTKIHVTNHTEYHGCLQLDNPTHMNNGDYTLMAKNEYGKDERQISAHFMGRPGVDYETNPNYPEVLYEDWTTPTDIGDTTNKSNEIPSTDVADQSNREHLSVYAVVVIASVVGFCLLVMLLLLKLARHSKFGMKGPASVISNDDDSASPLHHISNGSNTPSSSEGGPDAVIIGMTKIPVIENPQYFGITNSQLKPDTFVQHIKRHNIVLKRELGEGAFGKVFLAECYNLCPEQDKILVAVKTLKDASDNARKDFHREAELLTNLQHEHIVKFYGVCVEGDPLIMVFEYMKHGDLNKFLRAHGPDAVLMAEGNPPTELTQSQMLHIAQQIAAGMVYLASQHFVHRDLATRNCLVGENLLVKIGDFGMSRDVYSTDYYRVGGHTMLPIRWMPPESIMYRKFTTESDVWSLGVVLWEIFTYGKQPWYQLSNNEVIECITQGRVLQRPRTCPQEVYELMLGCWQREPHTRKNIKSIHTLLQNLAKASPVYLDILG

What does the source list for `CC(C)(C)n1nc(Cc2cccc3ccccc23)c2c(N)ncnc21` [1NMPP1, 1-(1,1-dimethylethyl)-3-(1-naphthalenylmethyl)-1H-pyrazolo[3,4-d]pyrimidin-4-amine]?
Detectable effect in WT mice [1]: does not have any detectable effect; Duration of electrographic seizure versus vehicle ([2]; 1NMPP1 for two days (IP and drinking water) six days after final kindled seizure): No differences were detected; Duration of behavioral seizure versus vehicle ([2]; 1NMPP1 for two days): No differences were detected; Seizure class versus vehicle ([2]; 1NMPP1 for two days): No differences were detected; Duration of electrographic seizure, Post-Kindling Seizure #2 ([3]; 1NMPP1 16.6 ug/g IP every 12 h, five treatments, plus 25 μM in drinking water, initiated immediately following Post-Kindling Seizure #1, n=16, vehicle 56.6±7.6 s, p<0.01, Final Kindled Sz 43.8±4.5 s): 29.2 ± 3.8 s; Duration of behavioral seizure, Post-Kindling Seizure #2 ([3]; 1NMPP1 16.6 ug/g IP every 12 h, five treatments, plus drinking water, after Post-Kindling Seizure #1, vehicle 139.8±16.5 s, p<0.01): 63.5 ± 10 s; Behavioral seizure class of Post-Kindling Seizure #2 ([3]; 1NMPP1 after Post-Kindling Seizure #1, versus vehicle): nonsignificant trend toward reduction; Number of animals with subconvulsive (less than Class 4) Post-Kindling Sz #2 ([3]; 1NMPP1 following Post-Kindling Sz #1, 33 animals received 1NMPP1 or pY816, controls 1 of 28): 4; Duration of electrographic seizure, Post-Kindling Sz #2 ([4]; Post-Kindling Sz #1 35.1±5.3 s): 67.4 ± 13.5 s; Duration of behavioral seizure, Post-Kindling Sz #2 ([4]; Post-Kindling Sz #1 72.4±10.2 s): 107.6 ± 10.5 s

What does the source list for `NC(=O)N1c2ccccc2C=Cc2ccccc21` [carbamazepine, Carbamazepine]?
SRS during two weeks following cessation of treatment [5]: seizures recurred in each animal; SRS during two weeks following cessation of treatment ([5]; listed as Carbamazepine): seizures recurred following cessation of treatment in each of the six animals; SRS during two weeks on treatment [5]: reduced in each of the six animals; SRS during two weeks on treatment ([5]; listed as Carbamazepine): effectively suppressed SRS in all but one animal; Duration of behavioral seizure, Post-Kindling Sz #2, versus vehicle [6]: No differences were detected; Seizure class, Post-Kindling Sz #2, versus vehicle [6]: No differences were detected; Duration of electrographic seizure, Post-Kindling Sz #2, versus vehicle ([6]; Sz #2 evoked fourteen days after last dose): No differences were detected
